Results reported in paper PMC7037636, “Synthesis of New Series of 2-C-(β-D-glucopyranosyl)-Pyrimidines and Their Evaluation as Inhibitors of Some Glycoenzymes” (Molecules, 2020).

Target: T1, bovine liver β-galactosidase
T1 construct: gene GLB1; commercial native enzyme from bovine liver (Sigma-Aldrich)
Assay: PNP-β-Gal hydrolysis, absorbance at […] nm
Type: biochemical, Bos taurus
Conditions: 1 mM PNP-β-Gal, citrate-phosphate buffer pH 7.3, 37 °C, 0.12 mg/mL enzyme; read-out: Inh.

## CCOC(=O)c1c(-c2ccccc2)nc([C@@H]2O[C@H](CO)[C@@H](O)[C@H](O)[C@H]2O)[nH]c1=O [11h, Ethyl 2-(β-D-glucopyranosyl)-4-phenyl-6-oxo-1,6-dihydropyrimidine-5-carboxylate]
  IC50: 294 ± 50 µM
